Marks after values point to notes of the source that are not given here.
Tests used:
[1] = target: mouse Sptlc1 (serine palmitoyl-CoA transferase subunit 1) (mouse) (UniProt O35704); assay: cell-based or functional assay
apoE KO mice [2] = assay: Plasma sphingolipid analysis by mass spectrometry after myriocin administration; type: in vivo, mouse; conditions: for Plasma C14Cer / Plasma C16Cer / Plasma C18:1Cer / Plasma C18Cer / Plasma C20Cer / Plasma C24:1Cer / Plasma C24Cer / Plasma DHSph / Plasma DHSph-1P / Plasma S1P / Plasma Sph: myriocin 0.3 mg/kg i.p. 8 weeks, n=7
Experimental: (§1) Eight-week-old apoE KO micewere purchased from The Jackson Laboratory (Bar Harbor, Me.). Myriocin (0.3 mg/kg) (Biomol Research Laboratories Inc.) or phosphate buffered saline was injected intraperitoneally every other day for 8 weeks. The animals were on Purina Rodent Chow (catalog number 5001) or a high fat, high cholesterol diet (20% milk fat and 0.15% cholesterol; Harlan Teklad, Madison, Wis.).
Plasma sphingosinebases, sphingoid base-1-phosphates, and ceramide species were performed on a Thermo Finnigan TSQ 7000 triple quadrupole mass spectrometer operating in a multiple reaction monitoring, positive ionization mode at the Department of Biochemistry and Molecular Biology, Medical University of South Carolina, on a fee-for-service basis. Briefly, 250 μl of mouse plasma was fortified with the internal standards (IC17 base D-erythro-sphingosine (17C-Sph), C17 sphingosine-1-phosphate (17C—S1P), N-palmitoyl-D-erythro-C13 sphingosine (13C-Cer), and heptadecanoyl-D-erythro-sphingosine (C17-Cer)) and extracted with ethyl acetate/iso-propanol/water (60:30:10) (v/v) solvent system. After evaporation and reconstitution in 100 μl of methanol, samples were injected onto the Surveyor/TSQ 7000 liquid chromatography/mass spectrometry system, and gradient was eluted from a BDSHypersil C8, 150×3.2-mm, 3-μm particle size column with a 1 mM methanolic ammonium formate, 2 mM aqueous ammonium formate mobile phase system. Peaks corresponding to the target analytes and internal standards were collected and processed using the Xcalibur software system. Quantitative analysis was based on the calibration curves generated by spiking an artificial matrix with the known amounts of the target analyte synthetic standards and an equal amount of the internal standards. The target analyte/internal standard peak area ratios were plotted against analyte concentration. The target analyte/internal standard peak area ratios from the samples were similarly normalized to their respective internal standards and compared with the calibration curves using a linear regression model.

apoE KO mice [3] = assay: Plasma lipid measurement after myriocin administration; type: in vivo, mouse; conditions: for Plasma PC: PC = total phospholipid minus SM; for Plasma SM: n=7; for PC/SM ratio increased / plasma PC levels increased / plasma SM levels decreased: vs control; for PC/SM ratio increased / plasma PC levels increased: p<0.0001
Experimental: as §1
(§2) Fasting plasma was collected for fast protein liquid chromatography (FPLC) separation and lipid measurement. Total cholesterol, phospholipids and triglyceride inplasma, and lipoproteins were assayed by enzymatic methods (WakoPure Chemical Industries Ltd., Osaka, Japan). Plasma sphingomyelin was measured as described previously (JBC13). PC concentration was obtained by subtracting SM from total phospholipid concentration. Apolipoprotein analysis using SDS-PAGE was also done as describedpreviously (JBC 14).

apoE KO mice [4] = assay: Atherosclerotic lesions: aorta root assay and en face assay; type: in vivo, mouse; conditions: 2 months of myriocin administration, p<0.01; for reduction in mean whole aortic lesion areas compared with controls: en face; for reduction in mean proximal aortic lesion areas compared with controls: root assay
Description: This set of pictures is representative of seven sets. FIGS. 8B and 8C depict quantification of atherosclerotic lesions in the proximal aorta by root assay in mice fed a chow diet (FIG. 8B) or a high fat, high cholesterol diet (FIG. 8C). The procedure for root assay was described previously (JBC 15). FIGS. 8D and 8E depict quantification of atherosclerotic lesions in whole aorta by en face analysis in mice fed a chow diet (FIG. 8D) or a high fat, high cholesterol diet (FIG. 8E). The procedure for en face analysis was described previously (JBC 16). Values are mean ±S.D. *, p<0.001; n=7.
At the end of the myriocin treatment period, the mice were sacrificed, and the hearts and proximal aortas as well as the whole aortas were removed, dissected, and photographed. An aorta root assay and an en face assay were performed as described previously (JBC 15, 16).

apoE KO mice [5] = assay: FPLC lipid distribution among lipoproteins with or without myriocin; type: in vivo, mouse
Experimental: Aliquots of 200 μl of pooled plasma from mice (n=7) with or without myriocin treatment were analyzed by FPLC (V, VLDL; L, LDL; and H, HDL). An aliquot of each fraction was used for the determination of SM (FIG. 6A), PC (FIG. 6B), and cholesterol (FIG. 6C).
Aliquots of 200 μl of pooled plasma from mice (n=7) with or without myriocin treatment were analyzed by FPLC (V, VLDL; L, LDL; and H, HDL). An aliquot of each fraction was used for the determination of SM (FIG. 7A), PC (FIG. 7B), and cholesterol (FIG. 7C).
as §2
To investigate the lipid distribution among the lipoproteins with or without myriocin treatment, FPLC was utilized to fractionize lipoproteins and measured SM, PL, and cholesterol in each fraction.

[6] = cited from earlier work
apoE KO mice [7] = assay: Apolipoprotein analysis using SDS-PAGE; type: in vivo, mouse
Experimental: as §2

T-lymphocyte populations = conditions: myriocin 1 mg/kg (but not 0.3 mg/kg); cited from earlier work
SPT = target: T1, SPT (Mus musculus, UniProt O35704+P97363); assay: SPT activity in liver of myriocin-treated apoE KO mice; type: in vivo; conditions: myriocin 0.3 mg/kg intraperitoneally every other day for 8 weeks
T1 construct: myriocin treated mice had 50% less SPT activity in the liver than the controls; from tissue; host or cells: liver of apoE KO mice (The Jackson Laboratory) treated in vivo with myriocin
T1 sequence (O35704 1-473): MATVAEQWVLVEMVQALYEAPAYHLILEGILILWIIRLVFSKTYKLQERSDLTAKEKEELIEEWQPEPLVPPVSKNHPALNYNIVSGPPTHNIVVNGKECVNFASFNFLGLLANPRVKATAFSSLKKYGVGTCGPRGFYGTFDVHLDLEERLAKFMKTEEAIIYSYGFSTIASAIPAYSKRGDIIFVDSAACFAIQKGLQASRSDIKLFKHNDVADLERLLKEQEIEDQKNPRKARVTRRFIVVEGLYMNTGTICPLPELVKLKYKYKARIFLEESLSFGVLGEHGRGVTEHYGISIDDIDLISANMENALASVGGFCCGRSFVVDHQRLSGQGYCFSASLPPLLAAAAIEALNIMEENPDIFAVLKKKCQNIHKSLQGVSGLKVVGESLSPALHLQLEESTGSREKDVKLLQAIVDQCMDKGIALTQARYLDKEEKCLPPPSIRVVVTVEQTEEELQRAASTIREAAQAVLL
T1 sequence (P97363 1-560): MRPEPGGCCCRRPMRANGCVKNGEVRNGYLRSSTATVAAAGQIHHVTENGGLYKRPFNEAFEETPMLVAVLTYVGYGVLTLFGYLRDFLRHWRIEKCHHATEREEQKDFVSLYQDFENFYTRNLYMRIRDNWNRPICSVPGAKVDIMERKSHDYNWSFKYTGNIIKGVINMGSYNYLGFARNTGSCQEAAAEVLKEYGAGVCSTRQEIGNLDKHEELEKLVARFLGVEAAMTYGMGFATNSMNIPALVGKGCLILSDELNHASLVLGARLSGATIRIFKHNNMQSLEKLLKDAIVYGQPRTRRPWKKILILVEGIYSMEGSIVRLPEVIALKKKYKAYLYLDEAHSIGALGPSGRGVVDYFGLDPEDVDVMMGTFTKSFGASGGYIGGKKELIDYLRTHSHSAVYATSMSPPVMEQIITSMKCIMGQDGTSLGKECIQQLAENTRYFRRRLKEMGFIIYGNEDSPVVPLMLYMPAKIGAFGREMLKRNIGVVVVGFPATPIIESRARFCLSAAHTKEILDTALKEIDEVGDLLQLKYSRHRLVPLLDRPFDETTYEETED
T1 sequence (Q8R207 1-71 partner): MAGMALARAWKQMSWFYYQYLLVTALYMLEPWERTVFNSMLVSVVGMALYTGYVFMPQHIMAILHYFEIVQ
Experimental: Each mRNA level was expressed as a ratio to β-Actin mRNA. Liver tissues from Sptlc1 and Sptlc2-deficient, as well as wild type, mice were homogenized, and SPT activity was measured with ^3H-serine and palmitoyl-coenzyme A for substrates, as previously described (15).
as §1
In the present invention, two groups of 8-week-old apoE KO mice were utilized. Group 1 (n=7) and group 2 (n=7) animals were injected with 100 μl of myriocin (0.3 mg/kg) or phosphate-buffered saline, respectively, every other day for 8 weeks. As expected, myriocin treated mice had 50% less SPT activity in the liver than the controls.

apoE KO mice [8] = conditions: oral myriocin, high cholesterol diet; cited from earlier work
[9] = high fat, high cholesterol diet
[10] = chow diet, myriocin 0.3 mg/kg i.p. 8 weeks
[11] = high fat diet, myriocin 0.3 mg/kg i.p. 8 weeks
[12] = high fat, high cholesterol (Western type) diet 8 weeks
[13] = chow diet, pooled plasma n=7, FIG. 6
[14] = high fat diet, pooled plasma n=7, FIG. 7

mouse Sptlc2 (serine palmitoyl-CoA transferase subunit 2) (from UniProt P97363 1-560) (enzyme)
decrease in Sptlc2 protein mass in Sptlc1+/- mouse liver against WT (Western blot of liver homogenate) [1]: 53%

CCCCCCC(=O)CCCCCC/C=C/C[C@@H](O)[C@H](O)[C@@](N)(CO)C(=O)O [Myriocin, myriocin]
plasma Cer, change after myriocin treatment (apoE KO mice [2]; chow diet): significantly decreased
plasma S1P, change after myriocin treatment (apoE KO mice [2]; chow diet): significantly decreased
plasma Sph, change after myriocin treatment (apoE KO mice [2]; chow diet): significantly decreased
Plasma C14Cer (apoE KO mice [2]; chow diet): 12 ± 2^a nM
Plasma C16Cer (apoE KO mice [2]; chow diet): 11 ± 3^a nM
Plasma C18:1Cer (apoE KO mice [2]; chow diet): 2 ± 1^a nM
Plasma C18Cer (apoE KO mice [2]; chow diet): 51 ± 8^a nM
Plasma C20Cer (apoE KO mice [2]; chow diet): 35 ± 9^a nM
Plasma C24:1Cer (apoE KO mice [2]; chow diet): 854 ± 144^a nM
Plasma C24Cer (apoE KO mice [2]; chow diet): 1321 ± 22^a nM
Plasma DHSph (apoE KO mice [2]; chow diet): 30 ± 3 nM
Plasma DHSph-1P (apoE KO mice [2]; chow diet): 9 ± 5^a nM
Plasma S1P (apoE KO mice [2]; chow diet): 58 ± 9^a nM
Plasma Sph (apoE KO mice [2]; chow diet): 127 ± 8^a nM
Plasma S1P (apoE KO mice [2]; chow diet, listed as myriocin): < 100 nM
Plasma C14Cer (apoE KO mice [2]; high fat diet): 20 ± 2 nM
Plasma C16Cer (apoE KO mice [2]; high fat diet): 12 ± 6^a nM
Plasma C18:1Cer (apoE KO mice [2]; high fat diet): 9 ± 1^a nM
Plasma C18Cer (apoE KO mice [2]; high fat diet): 36 ± 14^a nM
Plasma C20Cer (apoE KO mice [2]; high fat diet): 45 ± 11^a nM
Plasma C24:1Cer (apoE KO mice [2]; high fat diet): 1009 ± 134^a nM
Plasma C24Cer (apoE KO mice [2]; high fat diet): 1708 ± 426^a nM
Plasma DHSph (apoE KO mice [2]; high fat diet): 20 ± 1^a nM
Plasma DHSph-1P (apoE KO mice [2]; high fat diet): 10 ± 2^a nM
Plasma S1P (apoE KO mice [2]; high fat diet): 42 ± 19^a nM
Plasma Sph (apoE KO mice [2]; high fat diet): 114 ± 19^a nM
plasma Cer, change after myriocin treatment (apoE KO mice [2]; [9]): dramatically decreased
plasma S1P, change after myriocin treatment (apoE KO mice [2]; [9]): dramatically decreased
plasma Sph, change after myriocin treatment (apoE KO mice [2]; [9]): dramatically decreased
total cholesterol levels, change after myriocin (apoE KO mice [3]; chow diet): not significantly changed
triglyceride levels, change after myriocin (apoE KO mice [3]; chow diet): not significantly changed
PC/SM (apoE KO mice [3]; [10]): 12.1 ± 0.2a
Plasma Chol (apoE KO mice [3]; [10]): 660 ± 105 mg/dL
Plasma TG (apoE KO mice [3]; [10]): 75 ± 19 mg/dL
Plasma PC (apoE KO mice [3]; [10]): 399 ± 59^a mg/dl
Plasma SM (apoE KO mice [3]; chow diet, myriocin 0.3 mg/kg i.p. every other day 8 weeks, mean ± S.D.): 33 ± 3^a mg/dl
PC/SM ratio increased (apoE KO mice [3]; chow diet): 317%
plasma PC levels increased (apoE KO mice [3]; chow diet): 91%
plasma SM levels decreased (apoE KO mice [3]; chow diet, p<0.001): 54%
PC/SM (apoE KO mice [3]; [11]): 16.9
Plasma Chol (apoE KO mice [3]; [11]): 1807 ± 342 mg/dL
Plasma TG (apoE KO mice [3]; [11]): 107 ± 27 mg/dL
Plasma SM (apoE KO mice [3]; [11]): 47 ± 14^a mg/dl
Plasma PC (apoE KO mice [3]; [11]): 795 ± 97^a mg/dl
plasma SM levels decreased (apoE KO mice [3]; [12]): 59%
PC/SM ratio increased (apoE KO mice [3]; [12]): 380%
plasma PC levels increased (apoE KO mice [3]; [12]): 100%
total cholesterol levels, change after myriocin (apoE KO mice [3]; [9]): not significantly changed
triglyceride levels, change after myriocin (apoE KO mice [3]; [9]): not significantly changed
reduction in mean whole aortic lesion areas compared with controls (apoE KO mice [4]; Western type diet): 37%
reduction in mean proximal aortic lesion areas compared with controls (apoE KO mice [4]; Western type diet): 39%
reduction in mean whole aortic lesion areas compared with controls (apoE KO mice [4]; chow diet): 36%
reduction in mean proximal aortic lesion areas compared with controls (apoE KO mice [4]; chow diet): 42%
PC in FPLC lipoprotein fractions (apoE KO mice [5]; [13]): increased
SM in FPLC lipoprotein fractions (apoE KO mice [5]; [13]): significantly decreased
cholesterol in FPLC lipoprotein fractions (apoE KO mice [5]; [13]): no significant effect
PC in FPLC lipoprotein fractions (apoE KO mice [5]; [14]): increased
SM in FPLC lipoprotein fractions (apoE KO mice [5]; [14]): dramatically decreased
cholesterol in FPLC lipoprotein fractions (apoE KO mice [5]; [14]): no effect
toxicity of oral administration [6]: serious gastrointestinal toxicity
levels of apolipoproteins, including apoB100, apoB48, and apoA-I (apoE KO mice [7]; chow diet): no significant changes
levels of apolipoproteins, including, apoB48, and apoA-I (apoE KO mice [7]; [9]): no significant changes
effect on T-lymphocyte populations in mice (T-lymphocyte populations): reduces T-lymphocyte populations
less SPT activity in the liver than the controls (SPT): 50%
atherosclerotic lesions (apoE KO mice [8]): dramatic reduction
plasma SM levels (apoE KO mice [8]): significant reduction
plasma cholesterol levels (apoE KO mice [8]): significant reduction

— US20080249174A1, “Animal Model for Studying Atherosclerotic Lesions” (THE RESEARCH FOUNDATION OF STATE UNIVERSITY OF NEW YORK, priority 2005, published 2008)
